Experimental findings from PubChem BioAssay (NCI) are described below.

Some test systems named below: UACC-257 melanoma; HS 578T breast; RXF 393 renal; UO-31 renal; SF-295 CNS; SF-268 CNS; SK-MEL-2 melanoma; NCI-H23 lung; NCI-H522 lung; MALME-3M melanoma.
What all share (experiment): NCI-60 cell line screen, 48 h

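Assay format: 96-well plates, 48-hour exposure. The concentration for 50% growth inhibition is given as GI50. TGI is the concentration that stops growth completely.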

As for `O=C1c2ccccc2-c2c1c1ccccc1c(=O)n2CCCNCCCNCCCn1c2c(c3ccccc3c1=O)C(=O)c1ccccc1-2`, the GI50 is 0.811 µM in the assay on UACC-257 melanoma; 0.0984 µM in the assay on HS 578T breast; 0.0569 µM in the assay with RXF 393 renal; 0.0878 µM in the assay with UO-31 renal; 0.0151 µM in the assay on SF-295 CNS; 0.231 µM in the assay with SF-268 CNS. Besides, the GI50 with SK-MEL-2 melanoma is 15 µM; in the assay on NCI-H23 lung it was 0.0383 µM; in the assay on NCI-H522 lung, below 0.01 µM. In addition, the TGI with UACC-257 melanoma was 2.25 µM; with HS 578T breast it was 1.28 µM; in the assay on RXF 393 renal, 1.11 µM; with UO-31 renal, 0.215 µM; in the assay with SF-295 CNS it was 1.26 µM; in the assay on SF-268 CNS, 4.13 µM. Moreover, the TGI with SK-MEL-2 melanoma was determined as 28.2 µM; in the assay on NCI-H23 lung, 1.64 µM; in the assay on NCI-H522 lung, 0.0554 µM.

With `COc1ccc(N2C(C)=C(C#N)C34C(=O)N(c5ccccc5)C(=O)C3=C(O)C=CC24O)cc1` (stereo unspecified), the GI50 with UACC-257 melanoma is 30.1 µM; in the assay on HS 578T breast, 24.1 µM; in the assay on MALME-3M melanoma it was 19.2 µM; in the assay on RXF 393 renal, 3.15 µM; in the assay on UO-31 renal, 13.9 µM; with SF-295 CNS, 3.49 µM. Further, the values for the GI50 in the assay with SF-268 CNS, in the assay with SK-MEL-2 melanoma and with NCI-H23 lung were 16.6 µM, 19.5 µM and 8.86 µM, respectively. Further, the TGI was above 100 µM with UACC-257 melanoma; above 100 µM in the assay on HS 578T breast; 53.4 µM in the assay with MALME-3M melanoma; 14.7 µM in the assay with RXF 393 renal; 55.8 µM with UO-31 renal; 15.1 µM in the assay on SF-295 CNS. Further, the TGI stood at 80.2 µM with SF-268 CNS, 46.3 µM with SK-MEL-2 melanoma and 58 µM in the assay on NCI-H23 lung.

With `O=C(c1ccccc1)C1N=NCC1c1ccc([N+](=O)[O-])cc1` (stereo unspecified), the TGI in the assay with UACC-257 melanoma was 88.4 µM; with HS 578T breast, above 100 µM; in the assay on MALME-3M melanoma it was above 100 µM; in the assay on UO-31 renal it was above 100 µM; in the assay on SF-295 CNS it was above 100 µM; with SF-268 CNS, above 100 µM. Also, the TGI with SK-MEL-2 melanoma and in the assay with NCI-H23 lung was above 100 µM in each case.

Consider `Nc1ccn(Cc2ccc(C34CC5CC(CC(C5)C3)C4)c(O)c2)c(=O)n1`, for which the GI50 is 14.4 µM with HS 578T breast; above 100 µM in the assay on MALME-3M melanoma; above 100 µM in the assay on UO-31 renal; 31.5 µM in the assay with SF-295 CNS; 67.1 µM in the assay on SF-268 CNS; 76.1 µM with SK-MEL-2 melanoma. Moreover, the GI50 with NCI-H23 lung was 54.5 µM; in the assay with NCI-H522 lung, 40.9 µM. Besides, the TGI in the assay on HS 578T breast, in the assay on MALME-3M melanoma, in the assay on UO-31 renal, in the assay on SF-295 CNS, with SF-268 CNS and with SK-MEL-2 melanoma was above 100 µM in each case. For the same compound, the TGI with NCI-H23 lung and in the assay on NCI-H522 lung was above 100 µM in each case.

Consider `COC(=O)CCC1CCc2c(OC)ccc(O)c2C1=O` (stereo unspecified), for which the TGI with UACC-257 melanoma, with MALME-3M melanoma, with RXF 393 renal, in the assay on UO-31 renal, in the assay on SF-295 CNS and with SF-268 CNS was above 100 µM throughout. Also, the TGI in the assay on SK-MEL-2 melanoma, with NCI-H23 lung and in the assay with NCI-H522 lung was above 100 µM in each case.

On to `COC(=O)CCC(NC(=S)N/N=C(\C)c1nccs1)C(=O)OC` (stereo unspecified), for which the TGI in the assay with UACC-257 melanoma, in the assay with MALME-3M melanoma, with RXF 393 renal, in the assay on UO-31 renal, in the assay on SF-295 CNS and in the assay with SF-268 CNS was above 100 µM each time. In addition, the TGI was above 100 µM with SK-MEL-2 melanoma, above 100 µM in the assay with NCI-H23 lung and 78.4 µM in the assay on NCI-H522 lung.

Consider `C1CCSCCCCSCCCCSCCCCSC1`, for which the TGI in the assay with UACC-257 melanoma, with HS 578T breast, in the assay with RXF 393 renal, in the assay on UO-31 renal, in the assay with SF-295 CNS and in the assay on SF-268 CNS was above 100 µM throughout. Besides, the TGI in the assay with SK-MEL-2 melanoma, in the assay with NCI-H23 lung and with NCI-H522 lung was above 100 µM in each case.

On to `CCCCCn1c(=N)n(CC(O)COc2cccc(C)c2)c2ccccc21` (stereo unspecified), for which the GI50 is 3.36 µM with UACC-257 melanoma; 5.5 µM in the assay on HS 578T breast; 2.39 µM in the assay on MALME-3M melanoma; 4.03 µM in the assay on UO-31 renal; 5.62 µM with SF-295 CNS; 10.7 µM in the assay with SF-268 CNS. The GI50 was 5.68 µM with SK-MEL-2 melanoma, 6.87 µM with NCI-H23 lung and 5.7 µM in the assay with NCI-H522 lung. Further, the TGI is 12 µM with UACC-257 melanoma; 24.8 µM with HS 578T breast; 6.1 µM in the assay on MALME-3M melanoma; 17.6 µM in the assay on UO-31 renal; 22.8 µM in the assay with SF-295 CNS; 23.9 µM with SF-268 CNS. In addition, the TGI in the assay on SK-MEL-2 melanoma was 18.4 µM; with NCI-H23 lung, 22.5 µM; with NCI-H522 lung it was 20 µM.

`COc1ccc(N2C(=O)c3c4c(c5c([nH]c6ncccc65)c3C2=O)CCC(C(C)(C)C)C4)cc1` (stereo unspecified): the TGI was above 100 µM in the assay on UACC-257 melanoma; 72.2 µM in the assay with HS 578T breast; above 100 µM with RXF 393 renal; above 100 µM in the assay on UO-31 renal; above 100 µM in the assay with SF-295 CNS; above 100 µM in the assay on SF-268 CNS. The TGI with NCI-H23 lung and in the assay with NCI-H522 lung was above 100 µM each time.

For the compound `CCOC(=O)C1=C(C)N(Cc2ccccc2)C(C)=C(C(=O)OCC)C1c1ccccc1O`, the TGI in the assay with UACC-257 melanoma is 70.7 µM; in the assay on MALME-3M melanoma, 73.2 µM; in the assay with RXF 393 renal it was 60.2 µM; with UO-31 renal, above 100 µM; with SF-295 CNS it was above 100 µM; in the assay with SF-268 CNS, above 100 µM. Besides, the TGI came to 52.7 µM in the assay with SK-MEL-2 melanoma, 57.7 µM in the assay with NCI-H23 lung and 74.5 µM in the assay on NCI-H522 lung.

`Cc1ccc(C(=O)O/N=C2/CCC/C2=C\c2ccccc2)cc1`: the TGI in the assay with UACC-257 melanoma, in the assay with MALME-3M melanoma, in the assay with RXF 393 renal, in the assay with UO-31 renal, with SF-295 CNS and in the assay on SF-268 CNS was above 100 µM each time. Also, the TGI in the assay with SK-MEL-2 melanoma, in the assay on NCI-H23 lung and with NCI-H522 lung was above 100 µM in each case.
